From ChEMBL document CHEMBL5233266, “β-Carboline as a Privileged Scaffold for Multitarget Strategies in Alzheimer's Disease Therapy” (J Med Chem, 2021)
Several values for one entry are separate records, joined by “and”; a condition that tells them apart may be missing. Equal entries are not always repeated.

What was measured:
[1] = target: 5-hydroxytryptamine receptor 2A (Rattus norvegicus, UniProt P14842); assay: Displacement of [3H]-ketanserin from rat 5-HT2A expressed in mouse NIH/3T3 cells assessed as inhibition constant by Cheng-Prusoff equation analysis; type: cell-based
[2] = target: T1, 5-hydroxytryptamine receptor 2C (Homo sapiens, UniProt P28335); assay: Binding affinity to 5-HT2C (unknown origin) assessed as inhibition constant
T1 sequence (P28335 whole entry): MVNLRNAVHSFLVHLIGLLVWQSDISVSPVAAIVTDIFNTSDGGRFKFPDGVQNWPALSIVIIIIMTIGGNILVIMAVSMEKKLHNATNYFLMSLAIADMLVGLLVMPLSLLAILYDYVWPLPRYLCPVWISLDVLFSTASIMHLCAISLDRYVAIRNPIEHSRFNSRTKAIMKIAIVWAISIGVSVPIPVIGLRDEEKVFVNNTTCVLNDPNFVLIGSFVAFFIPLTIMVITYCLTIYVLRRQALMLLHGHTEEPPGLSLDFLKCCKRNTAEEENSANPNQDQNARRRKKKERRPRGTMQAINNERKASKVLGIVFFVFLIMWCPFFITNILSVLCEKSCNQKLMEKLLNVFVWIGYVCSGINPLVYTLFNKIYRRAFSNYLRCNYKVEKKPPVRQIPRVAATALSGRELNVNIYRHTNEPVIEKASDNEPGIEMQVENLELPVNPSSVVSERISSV

[3] = target: T2, Amine oxidase [flavin-containing] B (Homo sapiens, UniProt P27338); assay: Inhibition of MAO-B (unknown origin)
T2 sequence (P27338 whole entry): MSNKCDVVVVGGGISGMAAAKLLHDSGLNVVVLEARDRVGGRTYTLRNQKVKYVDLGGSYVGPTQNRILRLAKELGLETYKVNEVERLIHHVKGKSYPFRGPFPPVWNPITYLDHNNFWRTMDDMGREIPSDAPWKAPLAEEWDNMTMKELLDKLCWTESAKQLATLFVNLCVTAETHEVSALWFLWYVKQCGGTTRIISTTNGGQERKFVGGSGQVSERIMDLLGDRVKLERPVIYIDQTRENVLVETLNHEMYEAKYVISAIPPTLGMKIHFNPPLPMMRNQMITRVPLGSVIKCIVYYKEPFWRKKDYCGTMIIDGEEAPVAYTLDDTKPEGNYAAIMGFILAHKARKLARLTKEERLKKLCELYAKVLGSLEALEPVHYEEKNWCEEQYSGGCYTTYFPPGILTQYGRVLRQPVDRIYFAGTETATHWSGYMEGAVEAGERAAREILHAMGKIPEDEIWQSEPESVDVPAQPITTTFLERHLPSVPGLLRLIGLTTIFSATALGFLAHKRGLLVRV

[4] = target: Cholinesterase (Homo sapiens, UniProt P06276); assay: Inhibition of BuChE (unknown origin)
[5] = target: Dual specificity tyrosine-phosphorylation-regulated kinase 1A (Homo sapiens, UniProt Q13627); assay: Inhibition of DYRK1A (unknown origin)
[6] = target: Acetylcholinesterase (Homo sapiens, UniProt P22303); assay: Inhibition of AChE (unknown origin)
[7] = target: GABA-A receptor; anion channel; assay: Displacement of [3H]flunitrazepam from GABAA (unknown origin ) receptor by radioligand binding assay; type: protein-complex assay, Homo sapiens
[8] = Inhibition of NMDA receptor (unknown origin); set-up: species or system Homo sapiens
[9] = target: Glutamate receptor ionotropic, NMDA 2B (Homo sapiens, UniProt Q05586+Q13224); assay: Inhibition of NMDA receptor NR2B subunit (unknown origin)
[10] = target: 5-hydroxytryptamine receptor 5A (Homo sapiens, UniProt P47898); assay: Binding affinity to 5-HT5AR (unknown origin) assessed as inhibition constant
[11] = target: T3, 5-hydroxytryptamine receptor 2B (Homo sapiens, UniProt P41595); assay: Binding affinity to 5-HT2BR (unknown origin) assessed as inhibition constant
[12] = target: T4, Amine oxidase [flavin-containing] A (Homo sapiens, UniProt P21397); assay: Inhibition of MAO-A (unknown origin)
T4 sequence (P21397 whole entry): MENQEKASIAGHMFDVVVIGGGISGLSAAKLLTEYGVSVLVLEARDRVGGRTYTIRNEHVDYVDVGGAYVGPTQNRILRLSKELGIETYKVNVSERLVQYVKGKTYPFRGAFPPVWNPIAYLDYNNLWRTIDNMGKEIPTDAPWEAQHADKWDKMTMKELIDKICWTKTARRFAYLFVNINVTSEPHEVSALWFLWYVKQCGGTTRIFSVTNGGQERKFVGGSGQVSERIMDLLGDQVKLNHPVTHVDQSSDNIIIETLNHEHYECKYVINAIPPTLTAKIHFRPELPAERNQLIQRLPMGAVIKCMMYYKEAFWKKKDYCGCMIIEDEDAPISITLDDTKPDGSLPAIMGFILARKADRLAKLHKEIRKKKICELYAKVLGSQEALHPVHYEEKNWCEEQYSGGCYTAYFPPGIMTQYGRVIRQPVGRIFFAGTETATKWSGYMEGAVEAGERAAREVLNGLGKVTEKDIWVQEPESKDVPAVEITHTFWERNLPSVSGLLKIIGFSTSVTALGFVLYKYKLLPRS

[13] = target: T5, cGMP-specific 3',5'-cyclic phosphodiesterase (Homo sapiens, UniProt O76074); assay: Binding affinity to PDE5 (unknown origin) assessed as inhibition constant
[14] = target: T6, 5-hydroxytryptamine receptor 3A (Homo sapiens, UniProt P46098); assay: Binding affinity to 5-HT3R (unknown origin) assessed as inhibition constant
T6 sequence (P46098 whole entry): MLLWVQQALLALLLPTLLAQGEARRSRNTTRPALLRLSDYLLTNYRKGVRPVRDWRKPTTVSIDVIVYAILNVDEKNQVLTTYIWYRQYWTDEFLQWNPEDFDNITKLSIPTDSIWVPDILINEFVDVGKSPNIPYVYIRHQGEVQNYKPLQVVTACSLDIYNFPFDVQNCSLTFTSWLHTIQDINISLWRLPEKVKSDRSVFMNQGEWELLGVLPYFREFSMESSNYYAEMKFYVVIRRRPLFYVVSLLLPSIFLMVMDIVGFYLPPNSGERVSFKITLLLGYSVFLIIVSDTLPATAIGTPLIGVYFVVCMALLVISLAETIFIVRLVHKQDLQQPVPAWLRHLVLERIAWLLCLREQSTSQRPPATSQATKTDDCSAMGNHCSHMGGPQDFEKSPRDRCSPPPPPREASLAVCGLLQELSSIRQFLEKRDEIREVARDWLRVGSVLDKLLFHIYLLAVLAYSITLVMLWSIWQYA

[15] = target: 5-hydroxytryptamine receptor 2A (Homo sapiens, UniProt P28223); assay: Displacement of [3H]-LSD from human 5-HT2A expressed in human HEK cells assessed as inhibition constant by FLIPR assay; type: cell-based
[16] = target: T3, 5-hydroxytryptamine receptor 2B; assay: Binding affinity to 5-HT2B (unknown origin) assessed as equilibrium binding constant
[17] = target: 5-hydroxytryptamine receptor 2B (Rattus norvegicus, UniProt P30994); assay: Displacement of [3H]-ketanserin from rat 5-HT2B expressed in mouse NIH/3T3 cells assessed as inhibition constant by Cheng-Prusoff equation analysis; type: cell-based
[18] = target: Histone deacetylase 1 (Homo sapiens, UniProt Q13547); assay: Inhibition of HDAC1 (unknown origin)
[19] = target: T7, Protein deacetylase HDAC6 (Homo sapiens, UniProt Q9UBN7); assay: Inhibition of HDAC6 (unknown origin)
T7 sequence (Q9UBN7 whole entry): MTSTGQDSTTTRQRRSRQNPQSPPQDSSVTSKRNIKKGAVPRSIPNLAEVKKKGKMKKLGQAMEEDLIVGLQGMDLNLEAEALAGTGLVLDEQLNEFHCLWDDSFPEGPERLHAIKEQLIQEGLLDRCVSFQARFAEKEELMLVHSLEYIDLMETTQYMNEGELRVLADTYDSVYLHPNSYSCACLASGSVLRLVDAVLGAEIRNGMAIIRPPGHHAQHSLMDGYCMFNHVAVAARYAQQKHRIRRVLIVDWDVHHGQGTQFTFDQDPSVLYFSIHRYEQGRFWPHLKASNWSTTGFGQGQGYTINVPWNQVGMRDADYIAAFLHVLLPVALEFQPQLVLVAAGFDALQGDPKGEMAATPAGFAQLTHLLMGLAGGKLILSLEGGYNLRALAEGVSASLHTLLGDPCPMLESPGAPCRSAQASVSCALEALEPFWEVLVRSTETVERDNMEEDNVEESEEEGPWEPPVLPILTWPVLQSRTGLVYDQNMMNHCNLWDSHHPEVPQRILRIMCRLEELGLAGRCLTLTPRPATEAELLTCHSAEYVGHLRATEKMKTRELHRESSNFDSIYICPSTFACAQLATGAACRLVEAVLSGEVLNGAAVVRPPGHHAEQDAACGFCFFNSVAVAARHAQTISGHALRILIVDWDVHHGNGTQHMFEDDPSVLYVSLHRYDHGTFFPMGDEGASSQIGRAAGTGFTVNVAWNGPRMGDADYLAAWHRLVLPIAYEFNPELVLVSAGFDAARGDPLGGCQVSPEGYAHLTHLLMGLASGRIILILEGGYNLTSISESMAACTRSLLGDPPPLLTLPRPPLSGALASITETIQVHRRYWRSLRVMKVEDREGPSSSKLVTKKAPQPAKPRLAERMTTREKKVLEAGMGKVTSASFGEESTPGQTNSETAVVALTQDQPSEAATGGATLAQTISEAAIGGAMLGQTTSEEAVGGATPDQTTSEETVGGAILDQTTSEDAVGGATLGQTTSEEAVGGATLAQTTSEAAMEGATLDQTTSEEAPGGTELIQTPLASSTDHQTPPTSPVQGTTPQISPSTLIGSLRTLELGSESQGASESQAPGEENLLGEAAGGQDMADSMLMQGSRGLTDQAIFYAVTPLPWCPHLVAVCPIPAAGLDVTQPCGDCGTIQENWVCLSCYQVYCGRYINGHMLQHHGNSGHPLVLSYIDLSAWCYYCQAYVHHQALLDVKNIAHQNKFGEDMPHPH

[20] = target: T5, cGMP-specific 3',5'-cyclic phosphodiesterase; assay: Inhibition of PDE5 (unknown origin)

Chain of Cholinesterase (P06276 whole entry): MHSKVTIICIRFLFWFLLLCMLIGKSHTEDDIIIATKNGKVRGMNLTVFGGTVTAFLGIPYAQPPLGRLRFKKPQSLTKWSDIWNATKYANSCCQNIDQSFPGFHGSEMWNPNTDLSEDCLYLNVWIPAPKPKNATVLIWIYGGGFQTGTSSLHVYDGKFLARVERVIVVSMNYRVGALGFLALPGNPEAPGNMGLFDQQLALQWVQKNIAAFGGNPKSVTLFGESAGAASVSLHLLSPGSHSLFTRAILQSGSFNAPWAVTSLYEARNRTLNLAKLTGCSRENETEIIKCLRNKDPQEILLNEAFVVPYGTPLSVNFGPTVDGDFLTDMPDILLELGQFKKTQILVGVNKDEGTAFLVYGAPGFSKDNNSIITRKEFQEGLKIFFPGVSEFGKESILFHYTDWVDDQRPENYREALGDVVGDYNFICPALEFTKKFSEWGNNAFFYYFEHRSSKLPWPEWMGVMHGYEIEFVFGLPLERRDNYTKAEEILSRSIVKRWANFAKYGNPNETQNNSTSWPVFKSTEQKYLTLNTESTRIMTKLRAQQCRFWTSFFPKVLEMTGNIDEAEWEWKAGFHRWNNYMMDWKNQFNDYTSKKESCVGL
Chain of 5-hydroxytryptamine receptor 5A (P47898 whole entry): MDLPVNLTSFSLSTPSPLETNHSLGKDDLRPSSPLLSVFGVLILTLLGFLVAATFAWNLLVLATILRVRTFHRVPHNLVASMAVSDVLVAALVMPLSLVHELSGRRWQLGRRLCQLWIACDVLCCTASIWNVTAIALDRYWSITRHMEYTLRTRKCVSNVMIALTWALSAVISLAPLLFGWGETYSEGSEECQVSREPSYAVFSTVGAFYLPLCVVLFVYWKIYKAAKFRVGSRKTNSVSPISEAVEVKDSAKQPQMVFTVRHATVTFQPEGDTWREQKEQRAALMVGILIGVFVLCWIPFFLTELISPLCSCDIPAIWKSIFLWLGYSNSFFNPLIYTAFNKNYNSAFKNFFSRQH
T3 sequence (P41595 whole entry): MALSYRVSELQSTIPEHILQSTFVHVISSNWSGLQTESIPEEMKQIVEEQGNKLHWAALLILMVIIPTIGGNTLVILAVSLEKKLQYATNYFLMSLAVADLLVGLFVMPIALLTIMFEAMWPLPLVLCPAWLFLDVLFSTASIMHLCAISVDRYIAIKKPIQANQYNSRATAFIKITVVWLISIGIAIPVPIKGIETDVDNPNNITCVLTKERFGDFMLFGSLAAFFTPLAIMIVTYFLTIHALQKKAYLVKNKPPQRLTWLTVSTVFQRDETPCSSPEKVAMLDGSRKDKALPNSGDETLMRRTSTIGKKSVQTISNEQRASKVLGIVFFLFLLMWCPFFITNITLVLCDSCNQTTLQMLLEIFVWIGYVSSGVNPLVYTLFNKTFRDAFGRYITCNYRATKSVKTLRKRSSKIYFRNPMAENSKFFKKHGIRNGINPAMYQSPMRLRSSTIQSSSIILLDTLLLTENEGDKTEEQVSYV
Chain of Glutamate receptor ionotropic, NMDA 2B (Q13224 whole entry, one chain of several): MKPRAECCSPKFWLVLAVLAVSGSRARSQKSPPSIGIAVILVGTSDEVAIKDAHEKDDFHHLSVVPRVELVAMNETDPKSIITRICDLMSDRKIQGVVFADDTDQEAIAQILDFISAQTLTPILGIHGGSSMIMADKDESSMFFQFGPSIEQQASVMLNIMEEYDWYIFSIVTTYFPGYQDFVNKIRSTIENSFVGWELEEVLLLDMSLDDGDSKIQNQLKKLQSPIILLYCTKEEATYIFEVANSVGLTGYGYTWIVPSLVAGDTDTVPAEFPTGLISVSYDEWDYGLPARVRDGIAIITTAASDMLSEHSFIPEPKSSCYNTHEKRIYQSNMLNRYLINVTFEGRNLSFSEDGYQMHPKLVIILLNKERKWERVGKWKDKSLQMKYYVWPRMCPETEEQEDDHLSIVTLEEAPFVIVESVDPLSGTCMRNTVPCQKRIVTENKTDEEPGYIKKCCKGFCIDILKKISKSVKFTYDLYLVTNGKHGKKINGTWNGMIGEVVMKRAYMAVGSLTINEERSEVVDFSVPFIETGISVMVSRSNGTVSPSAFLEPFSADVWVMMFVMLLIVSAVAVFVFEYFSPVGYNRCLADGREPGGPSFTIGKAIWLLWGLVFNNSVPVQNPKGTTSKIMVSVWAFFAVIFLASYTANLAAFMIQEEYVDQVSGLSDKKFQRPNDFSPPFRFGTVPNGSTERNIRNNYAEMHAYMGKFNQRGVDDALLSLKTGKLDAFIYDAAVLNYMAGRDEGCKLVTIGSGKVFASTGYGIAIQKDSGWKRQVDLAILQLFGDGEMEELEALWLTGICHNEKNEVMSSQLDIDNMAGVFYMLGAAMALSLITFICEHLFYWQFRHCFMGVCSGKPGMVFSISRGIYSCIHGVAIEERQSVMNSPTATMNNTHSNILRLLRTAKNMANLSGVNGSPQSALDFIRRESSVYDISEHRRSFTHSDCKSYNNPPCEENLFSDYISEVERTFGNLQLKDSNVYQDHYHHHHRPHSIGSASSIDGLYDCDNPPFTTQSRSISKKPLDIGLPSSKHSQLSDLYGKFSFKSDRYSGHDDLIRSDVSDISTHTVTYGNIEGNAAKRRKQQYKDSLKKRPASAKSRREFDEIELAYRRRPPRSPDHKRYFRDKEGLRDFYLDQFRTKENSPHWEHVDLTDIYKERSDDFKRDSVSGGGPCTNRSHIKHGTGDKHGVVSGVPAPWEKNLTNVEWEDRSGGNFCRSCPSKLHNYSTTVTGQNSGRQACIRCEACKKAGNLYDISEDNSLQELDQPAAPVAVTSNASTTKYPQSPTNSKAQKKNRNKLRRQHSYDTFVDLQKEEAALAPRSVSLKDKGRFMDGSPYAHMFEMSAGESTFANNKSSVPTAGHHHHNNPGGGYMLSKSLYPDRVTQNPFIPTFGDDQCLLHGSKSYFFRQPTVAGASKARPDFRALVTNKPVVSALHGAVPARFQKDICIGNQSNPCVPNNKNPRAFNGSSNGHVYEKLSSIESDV
Chain of 5-hydroxytryptamine receptor 2A (Rattus norvegicus, UniProt P14842) (P14842 whole entry): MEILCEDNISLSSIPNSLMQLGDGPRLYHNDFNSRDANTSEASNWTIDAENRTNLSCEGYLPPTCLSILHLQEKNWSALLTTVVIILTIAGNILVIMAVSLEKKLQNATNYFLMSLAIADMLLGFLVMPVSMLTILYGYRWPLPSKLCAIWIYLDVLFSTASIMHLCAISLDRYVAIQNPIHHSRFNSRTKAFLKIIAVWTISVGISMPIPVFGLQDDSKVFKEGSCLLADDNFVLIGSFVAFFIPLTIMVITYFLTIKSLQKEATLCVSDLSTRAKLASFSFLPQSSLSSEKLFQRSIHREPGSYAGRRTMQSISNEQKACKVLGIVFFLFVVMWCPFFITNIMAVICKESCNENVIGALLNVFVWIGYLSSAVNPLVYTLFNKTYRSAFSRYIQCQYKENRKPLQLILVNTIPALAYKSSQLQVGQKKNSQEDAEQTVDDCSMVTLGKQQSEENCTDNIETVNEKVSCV
Chain of Acetylcholinesterase (P22303 whole entry): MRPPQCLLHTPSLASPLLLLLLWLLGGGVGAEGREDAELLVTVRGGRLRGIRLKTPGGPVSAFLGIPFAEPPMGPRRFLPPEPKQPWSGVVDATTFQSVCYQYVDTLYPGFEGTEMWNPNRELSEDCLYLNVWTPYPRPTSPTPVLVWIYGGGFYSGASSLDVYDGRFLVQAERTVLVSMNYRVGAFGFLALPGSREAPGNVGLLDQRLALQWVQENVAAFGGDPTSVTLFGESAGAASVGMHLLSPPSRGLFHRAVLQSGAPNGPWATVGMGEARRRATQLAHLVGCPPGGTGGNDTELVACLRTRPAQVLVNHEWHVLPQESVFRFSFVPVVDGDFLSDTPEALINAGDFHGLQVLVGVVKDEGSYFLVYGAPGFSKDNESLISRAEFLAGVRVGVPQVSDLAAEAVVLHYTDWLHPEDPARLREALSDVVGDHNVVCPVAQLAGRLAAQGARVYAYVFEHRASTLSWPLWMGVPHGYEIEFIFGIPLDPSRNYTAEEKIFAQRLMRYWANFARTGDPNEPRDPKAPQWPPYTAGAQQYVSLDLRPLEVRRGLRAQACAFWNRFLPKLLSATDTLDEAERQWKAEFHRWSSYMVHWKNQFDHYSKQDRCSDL
Chain of Histone deacetylase 1 (Q13547 whole entry): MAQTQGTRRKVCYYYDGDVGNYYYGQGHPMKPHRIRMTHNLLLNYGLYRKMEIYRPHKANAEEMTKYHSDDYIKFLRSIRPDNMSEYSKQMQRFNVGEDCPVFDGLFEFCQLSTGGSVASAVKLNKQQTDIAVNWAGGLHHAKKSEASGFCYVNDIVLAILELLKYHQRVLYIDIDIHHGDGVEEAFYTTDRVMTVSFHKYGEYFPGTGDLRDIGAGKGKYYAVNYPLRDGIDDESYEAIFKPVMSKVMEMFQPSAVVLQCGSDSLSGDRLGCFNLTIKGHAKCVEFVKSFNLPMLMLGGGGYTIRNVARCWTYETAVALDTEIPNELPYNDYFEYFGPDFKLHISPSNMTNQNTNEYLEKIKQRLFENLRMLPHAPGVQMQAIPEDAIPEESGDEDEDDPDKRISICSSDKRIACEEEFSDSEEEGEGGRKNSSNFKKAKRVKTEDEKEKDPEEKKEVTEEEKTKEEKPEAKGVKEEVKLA
Chain of 5-hydroxytryptamine receptor 2B (Rattus norvegicus, UniProt P30994) (P30994 whole entry): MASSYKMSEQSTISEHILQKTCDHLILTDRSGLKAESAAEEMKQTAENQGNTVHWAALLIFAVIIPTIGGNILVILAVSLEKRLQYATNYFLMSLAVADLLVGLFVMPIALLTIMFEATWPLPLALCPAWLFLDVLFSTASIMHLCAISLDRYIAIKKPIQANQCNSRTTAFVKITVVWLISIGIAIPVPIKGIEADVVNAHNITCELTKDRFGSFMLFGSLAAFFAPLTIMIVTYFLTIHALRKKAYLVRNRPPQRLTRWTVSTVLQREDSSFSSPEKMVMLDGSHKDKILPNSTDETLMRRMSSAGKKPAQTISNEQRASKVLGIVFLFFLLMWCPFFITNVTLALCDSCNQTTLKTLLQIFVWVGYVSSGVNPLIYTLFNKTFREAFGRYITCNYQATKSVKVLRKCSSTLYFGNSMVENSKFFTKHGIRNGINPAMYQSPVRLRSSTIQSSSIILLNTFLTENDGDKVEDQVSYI

Brc1cccc2[nH]c3c(c12)CCNC3
Ki [1]: < 180 nM

COc1cccc2[nH]c3c(c12)CCN=C3
Ki [2]: 65 nM

COC(=O)C1=CN2CCc3c([nH]c4ccccc34)[C@@H]2C[C@H]1C1=CCOC1=O
IC50 [3]: 34000 nM

c1ccc2c(c1)[nH]c1cnccc12 [NORHARMANE]
IC50 [4]: > 40000 nM | IC50 [5]: > 1800 nM | IC50 [6]: > 40000 nM | IC50 [7]: 1600 nM

C[n+]1ccc2c3ccccc3n(CCc3ccccc3)c2c1
IC50 [8]: 5000 nM | IC50 [4]: 5000 nM | IC50 [6]: 0.5 nM

Oc1ccc(CCCN2CCc3c([nH]c4ccccc34)C2)cc1
IC50 [9]: 87 nM

c1ccc(-c2nccc3c2[nH]c2ccccc23)cc1
Ki [10]: 1400 nM | Ki [11]: 1400 nM

Oc1ccc2[nH]c3c(-c4c[nH]c5ccccc45)nccc3c2c1
Ki [10]: 170 nM | Ki [2]: 170 nM | Ki [11]: 170 nM

COc1ccc2[nH]c3c(-c4cn(C)c5ccccc45)nccc3c2c1
Ki [10]: 100 nM | Ki [2]: 200 nM | Ki [11]: 100 nM

Cc1nccc2c1[nH]c1ccccc12 [HARMAN]
IC50 [4]: > 10000 nM | IC50 [5]: > 1800 nM | IC50 [12]: 29 nM | IC50 [6]: > 10000 nM | IC50 [7]: 2500 nM

CCCCn1c2cc(OCc3cn(Cc4ccccc4Cl)nn3)ccc2c2ccnc(C)c21
IC50 [12]: 430 nM | IC50 [3]: 360 nM

C/C=C(\C=O)[C@@H]1C[C@H]2c3[nH]c4ccccc4c3CCN2C=C1C(=O)OC [ISOVALLESIACHOTAMINE]
IC50 [12]: 870 nM | IC50 [3]: 130000 nM

CC(C)CCn1c2c(c3c(O)cc(O)cc31)CCn1c-2nc2ccccc2c1=O
Ki [13]: 86 nM

COc1ccc(-c2cnc(N3CC(=O)c4c([nH]c5ccccc45)C3c3ccc4c(c3)OCO4)nc2)cc1OC (configuration not stated)
Ki [13]: 9 nM

Oc1ccc2c3c([nH]c2c1)CN(CCCCc1ccccc1)CC3
IC50 [9]: 50 nM

O=C1CCC[C@@H]2c3[nH]c4ccccc4c3C[C@@H](CO)N12
IC50 [9]: 30000 nM

c1ccc2c(-c3nccc4c3[nH]c3ccccc34)c[nH]c2c1
Ki [10]: 170 nM | Ki [2]: 170 nM | Ki [11]: 170 nM

O=C(c1ccc(-c2ccc([N+](=O)[O-])cc2)o1)N1CCc2c([nH]c3ccccc23)C1c1ccc2c(c1)OCO2 (configuration not stated)
Ki [13]: 64 nM

COc1ccc2[nH]c3c(c2c1)CCN=C3C
Ki [14]: > 10000 nM | Ki [10]: > 10000 nM | Ki [15]: 4200 nM

c1ccc2cc(-c3nccc4c3[nH]c3ccccc34)ccc2c1
Ki [10]: 1500 nM | Ki [11]: 1500 nM

COc1ccc(CC2NCCc3c2[nH]c2cc(C)c(C)cc32)cc1OC (configuration not stated)
Ki [1]: 5 nM | Kb [16]: < 0.3 nM and 0.08 nM | Ki [17]: 0.2 nM

c1ccc(C[C@@H]2NCCc3c2[nH]c2ccccc32)cc1
IC50 [9]: 27000 nM

C=CC(=O)N1CCc2c(n(CCCCN3CCN(c4ccccc4OC)CC3)c3ccccc23)C1
Ki [1]: 44 nM

O=C(NO)c1cnc(N2CCC(CN3CC(=O)N4C(Cc5c([nH]c6ccccc56)C4c4ccc5c(c4)OCO5)C3=O)CC2)nc1 (configuration not stated)
IC50 [18]: 80 nM | IC50 [19]: 80 nM | IC50 [20]: 310 nM

COc1cccc2[nH]c3c(c12)CCN=C3C
Ki [2]: 65 nM

Oc1ccc2[nH]c3c(c2c1)CCN(CCCCc1ccccc1)C3
IC50 [9]: 140 nM

Nc1ccc(-c2ccc(C(=O)N3CCc4c([nH]c5ccccc45)C3c3ccc4c(c3)OCO4)o2)cc1 (configuration not stated)
Ki [13]: 64 nM
